Laboratory results reported in ChEMBL document CHEMBL3044858, “Design, synthesis, and biological evaluation of new 4-thiazolidinone derivatives substituted with benzimidazole ring as potential chemotherapeutic agents” (Med Chem Res, 2013).
Activity calls are given as the source filed them. The rule behind the calls is not given here.

Assays:
[1] = Cytotoxicity against lymphocytes in Homo sapiens (human) whole blood assessed as inhibition of cell viability after 24 to 96 hr by neutral red uptake assay; type: tissue-based; conditions: Lymphocyte
[2] = system: Blood; experiment: Toxicity in Homo sapiens (human) blood assessed as hemolysis
[3] = system: MCF7; experiment: Anticancer activity against Homo sapiens (human) MCF7 cells assessed as cell growth at 100 uM after 48 hr by SRB assay; type: functional, cell-based; conditions: MCF7, 48 h; for growth at 100 µM: read-out: Activity
[4] = system: Hepatitis C virus; experiment: Antiviral activity against Hepatitis C virus infected HepG2 cells assessed as disappearance of (+) and or (-) strands of viral RNA at 0.108 uM after 96 hr by qualitative RT-PCR analysis; type: functional, organism-based; conditions: Hepacivirus hominis
[5] = system: Hepatitis C virus; experiment: Antiviral activity against Hepatitis C virus isolated from PBMC of infected patient assessed as disappearance of (+) and or (-) strands of viral RNA at 0.108 uM after 96 hr by qualitative RT-PCR analysis; type: functional, organism-based; conditions: Hepacivirus hominis
[6] = system: MCF7; experiment: Anticancer activity against Homo sapiens (human) MCF7 cells assessed as growth inhibition after 48 hr by SRB assay; type: functional, cell-based; conditions: MCF7, 48 h
[7] = system: HCT-116; experiment: Anticancer activity against Homo sapiens (human) HCT116 cells assessed as cell growth at 100 uM after 48 hr by SRB assay; type: functional, cell-based; conditions: HCT-116, 48 h; for growth at 100 µM: read-out: Activity
[8] = system: HepG2; experiment: Anticancer activity against Homo sapiens (human) HepG2 cells assessed as cell growth at 100 uM after 48 hr by SRB assay; type: functional, cell-based; conditions: HepG2, 48 h; for growth at 100 µM: read-out: Activity
[9] = molecular target: T1, Arylamine N-acetyltransferase 1 (Homo sapiens, UniProt P18440); experiment: Inhibition of Homo sapiens (human) arylamine N-acetyltransferase 1
T1 sequence (P18440 whole entry): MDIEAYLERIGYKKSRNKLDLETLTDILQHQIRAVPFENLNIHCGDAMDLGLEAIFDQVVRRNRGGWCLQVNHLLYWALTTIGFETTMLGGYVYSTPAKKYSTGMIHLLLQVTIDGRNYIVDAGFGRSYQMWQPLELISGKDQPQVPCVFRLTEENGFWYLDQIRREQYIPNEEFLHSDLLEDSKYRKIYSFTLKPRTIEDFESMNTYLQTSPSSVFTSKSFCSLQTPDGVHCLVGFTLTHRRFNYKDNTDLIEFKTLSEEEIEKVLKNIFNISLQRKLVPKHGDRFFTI

[10] = system: HCT-116; experiment: Anticancer activity against Homo sapiens (human) HCT116 cells assessed as growth inhibition after 48 hr by SRB assay; type: functional, cell-based; conditions: HCT-116, 48 h
[11] = system: Hepatitis C virus; experiment: Antiviral activity against Hepatitis C virus isolated from PBMC of infected patient assessed as disappearance of (+) and or (-) strands of viral RNA at 0.078 uM after 96 hr by qualitative RT-PCR analysis; type: functional, organism-based; conditions: Hepacivirus hominis
[12] = system: Hepatitis C virus; experiment: Antiviral activity against Hepatitis C virus infected HepG2 cells assessed as disappearance of (+) and or (-) strands of viral RNA at 0.078 uM after 96 hr by qualitative RT-PCR analysis; type: functional, organism-based; conditions: Hepacivirus hominis
[13] = system: Hepatitis C virus; experiment: Antiviral activity against Hepatitis C virus infected HepG2 cells assessed as disappearance of (+) and or (-) strands of viral RNA at 0.077 uM after 96 hr by qualitative RT-PCR analysis; type: functional, organism-based; conditions: Hepacivirus hominis
[14] = system: Hepatitis C virus; experiment: Antiviral activity against Hepatitis C virus isolated from PBMC of infected patient assessed as disappearance of (+) and or (-) strands of viral RNA at 0.077 uM after 96 hr by qualitative RT-PCR analysis; type: functional, organism-based; conditions: Hepacivirus hominis
[15] = system: Hepatitis C virus; experiment: Antiviral activity against Hepatitis C virus infected HepG2 cells assessed as disappearance of (+) and or (-) strands of viral RNA at 0.30 uM after 96 hr by qualitative RT-PCR analysis; type: functional, organism-based; conditions: Hepacivirus hominis
[16] = system: Hepatitis C virus; experiment: Antiviral activity against Hepatitis C virus isolated from PBMC of infected patient assessed as disappearance of (+) and or (-) strands of viral RNA at 0.30 uM after 96 hr by qualitative RT-PCR analysis; type: functional, organism-based; conditions: Hepacivirus hominis
[17] = system: HepG2; experiment: Anticancer activity against Homo sapiens (human) HepG2 cells assessed as growth inhibition after 48 hr by SRB assay; type: functional, cell-based; conditions: HepG2, 48 h
[18] = system: Hepatitis C virus; experiment: Antiviral activity against Hepatitis C virus infected in HepG2 cells assessed as disappearance of (+) and or (-) strands of viral RNA at 0.312 uM after 96 hr by qualitative RT-PCR analysis; type: functional, organism-based; conditions: Hepacivirus hominis
[19] = system: Hepatitis C virus; experiment: Antiviral activity against Hepatitis C virus isolated from PBMC of infected patient assessed as disappearance of (+) and or (-) strands of viral RNA at 0.312 uM after 96 hr by qualitative RT-PCR analysis; type: functional, organism-based; conditions: Hepacivirus hominis
[20] = system: Hepatitis C virus; experiment: Antiviral activity against Hepatitis C virus isolated from PBMC of infected patient assessed as disappearance of (+) and or (-) strands of viral RNA at 0.647 uM after 96 hr by qualitative RT-PCR analysis; type: functional, organism-based; conditions: Hepacivirus hominis
[21] = system: Hepatitis C virus; experiment: Antiviral activity against Hepatitis C virus infected HepG2 cells assessed as disappearance of (+) and or (-) strands of viral RNA at 0.647 uM after 96 hr by qualitative RT-PCR analysis; type: functional, organism-based; conditions: Hepacivirus hominis
[22] = system: Hepatitis C virus; experiment: Antiviral activity against Hepatitis C virus isolated from PBMC of infected patient assessed as disappearance of (+) and or (-) strands of viral RNA at 0.611 uM after 96 hr by qualitative RT-PCR analysis; type: functional, organism-based; conditions: Hepacivirus hominis
[23] = system: Hepatitis C virus; experiment: Antiviral activity against Hepatitis C virus infected HepG2 cells assessed as disappearance of (+) and or (-) strands of viral RNA at 0.611 uM after 96 hr by qualitative RT-PCR analysis; type: functional, organism-based; conditions: Hepacivirus hominis
[24] = system: Hepatitis C virus; experiment: Antiviral activity against Hepatitis C virus infected HepG2 cells assessed as disappearance of (+) and or (-) strands of viral RNA at 1.116 uM after 96 hr by qualitative RT-PCR analysis; type: functional, organism-based; conditions: Hepacivirus hominis
[25] = system: Hepatitis C virus; experiment: Antiviral activity against Hepatitis C virus isolated from PBMC of infected patient assessed as disappearance of (+) and or (-) strands of viral RNA at 1.116 uM after 96 hr by qualitative RT-PCR analysis; type: functional, organism-based; conditions: Hepacivirus hominis
[26] = system: Hepatitis C virus; experiment: Antiviral activity against Hepatitis C virus infected in HepG2 cells assessed as disappearance of (+) and or (-) strands of viral RNA at 0.394 uM after 96 hr by qualitative RT-PCR analysis; type: functional, organism-based; conditions: Hepacivirus hominis
[27] = system: Hepatitis C virus; experiment: Antiviral activity against Hepatitis C virus isolated from PBMC of infected patient assessed as disappearance of (+) and or (-) strands of viral RNA at 0.394 uM after 96 hr by qualitative RT-PCR analysis; type: functional, organism-based; conditions: Hepacivirus hominis
[28] = system: Hepatitis C virus; experiment: Antiviral activity against Hepatitis C virus isolated from PBMC of infected patient assessed as disappearance of (+) and or (-) strands of viral RNA at 0.295 uM after 96 hr by qualitative RT-PCR analysis; type: functional, organism-based; conditions: Hepacivirus hominis
[29] = system: Hepatitis C virus; experiment: Antiviral activity against Hepatitis C virus infected HepG2 cells assessed as disappearance of (+) and or (-) strands of viral RNA at 0.295 uM after 96 hr by qualitative RT-PCR analysis; type: functional, organism-based; conditions: Hepacivirus hominis

With COc1ccc(/C=C2\SC(=S)N(Cc3nc4ccccc4[nH]3)C2=O)cc1 the IC50 [1] was 54.3 µM, the Activity [2] was “Non-toxic” and the growth at 100 µM [3] was -5.75%. The Activity [4] was “inactive”, the Activity [5] was “inactive” and the IC50 [6] was 46.7 µM. For the same compound, the growth at 100 µM [7] was 16.2% and the growth at 100 µM [8] was 11.8%.

O=C1/C(=C/c2ccccc2)SC(=S)N1Cc1nc2ccccc2[nH]1 gave an IC50 [6] of 35.1 µM.

With O=C1NC(=O)/C(=C/c2ccccc2O)S1 the IC50 [9] was 1.1 µM.

O=C1/C(=C\c2ccccc2)S/C(=N\c2ccccc2)N1Cc1nc2ccccc2[nH]1 gave a growth at 100 µM [3] of -0.69%, a growth at 100 µM [7] of 7% and a growth at 100 µM [8] of 24.4%. It also gave an IC50 [10] of 7.3 µM.

With O=C1/C(=C/c2ccc([N+](=O)[O-])cc2)SC(=S)N1Cc1nc2ccccc2[nH]1 the IC50 [1] was 39.5 µM, the Activity [2] was “Non-toxic” and the Activity [11] was “inactive”. The Activity [12] was “inactive” and the IC50 [6] was 39.4 µM.

In the case of COc1ccc(OC)c(/C=C2\SC(=S)N(Cc3nc4ccccc4[nH]3)C2=O)c1, the IC50 [1] is reported as 39 µM, the Activity [2] is reported as “Non-toxic” and the growth at 100 µM [3] is reported as -2.27%. The IC50 [6] was 27.7 µM, the growth at 100 µM [7] was 20.8% and the growth at 100 µM [8] was 18.6%. For the same compound, the Activity [13] was “inactive” and the Activity [14] was “inactive”.

In the case of O=C1/C(=C\c2ccc([N+](=O)[O-])cc2)S/C(=N\c2ccccc2)N1Cc1nc2ccccc2[nH]1, the growth at 100 µM [3] is reported as -0.79%, the growth at 100 µM [7] is reported as 18% and the growth at 100 µM [8] is reported as 24%.

In the case of CC(=O)NS(=O)(=O)c1ccc(N/N=C2/SC(=S)N(Cc3nc4ccccc4[nH]3)C2=O)cc1, the IC50 [1] is reported as 15.3 µM, the Activity [2] is reported as “Non-toxic” and the Activity [15] is reported as “inactive”. The Activity [16] was “inactive”.

In the case of O=C1Nc2ccccc2/C1=C1/S/C(=N\c2ccccc2)N(Cc2nc3ccccc3[nH]2)C1=O, the IC50 [17] is reported as 5.91 µM, the IC50 [1] is reported as 15.6 µM and the Activity [2] is reported as “Non-toxic”. For the same compound, the IC50 [3] was 7.07 µM, the Activity [18] was “inactive” and the Activity [19] was “inactive”. It also gave an IC50 [7] of 16.2 µM and an IC50 [8] of 6.8 µM.

With O=C1/C(=C\c2ccc(Cl)cc2)S/C(=N\c2ccccc2)N1Cc1nc2ccccc2[nH]1 the IC50 [1] was 32.4 µM, the Activity [2] was “Non-toxic” and the Activity [20] was “inactive”. The Activity [21] was “inactive”.

In the case of O=C1/C(=N\Nc2ccc(S(=O)(=O)Nc3ncccn3)cc2)SC(=S)N1Cc1nc2ccccc2[nH]1, the IC50 [1] is reported as 30.6 µM, the Activity [2] is reported as “Non-toxic” and the Activity [22] is reported as “inactive”. For the same compound, the Activity [23] was “inactive”.

O=C1/C(=C/C=C/c2ccccc2)SC(=S)N1Cc1nc2ccccc2[nH]1 showed a growth at 100 µM [3] of -3.93%, an IC50 [6] of 37.4 µM and a growth at 100 µM [7] of 21.2%. The growth at 100 µM [8] was 14.2%.

Work on COc1ccc(/C=C2/S/C(=N\c3ccccc3)N(Cc3nc4ccccc4[nH]3)C2=O)c(OC)c1 yielded a growth at 100 µM [3] of -1.19%, a growth at 100 µM [7] of 15.5% and a growth at 100 µM [8] of 18.4%.

In the case of O=C1Nc2ccccc2/C1=C1/SC(=S)N(Cc2nc3ccccc3[nH]2)C1=O, the IC50 [1] is reported as 55.8 µM, the Activity [2] is reported as “Non-toxic” and the Activity [24] is reported as “inactive”. For the same compound, the Activity [25] was “inactive” and the IC50 [6] was 35.4 µM.

With Cc1ccc(/N=C2\S/C(=C\c3ccc(Cl)cc3)C(=O)N2Cc2nc3ccccc3[nH]2)cc1 the IC50 [1] was 19.7 µM, the Activity [2] was “Non-toxic” and the Activity [26] was “inactive”. The Activity [27] was “inactive”.

Work on O=C1/C(=C/c2ccccc2Cl)SC(=S)N1Cc1nc2ccccc2[nH]1 yielded a growth at 100 µM [3] of -4.32%, an IC50 [6] of 39.6 µM and a growth at 100 µM [7] of 27.6%. The growth at 100 µM [8] was 9.07%.

O=C1/C(=C\c2ccccc2Cl)S/C(=N\c2ccccc2)N1Cc1nc2ccccc2[nH]1 gave a growth at 100 µM [3] of -1.74%, an IC50 [6] of 34.8 µM and a growth at 100 µM [7] of 13.8%. It also gave a growth at 100 µM [8] of 18.9%.

COc1ccc(/C=C2\SC(=S)N(Cc3nc4ccccc4[nH]3)C2=O)c(OC)c1 showed a growth at 100 µM [3] of 0.34%, a growth at 100 µM [7] of 19.2% and a growth at 100 µM [8] of 17.8%.

In the case of CN(C)c1ccc(/C=C2\SC(=S)N(Cc3nc4ccccc4[nH]3)C2=O)cc1, the IC50 [1] is reported as 14.8 µM, the Activity [2] is reported as “Non-toxic” and the Activity [28] is reported as “inactive”. For the same compound, the Activity [29] was “inactive”.
